Data published in EP0552223B1, “USE OF BENZENE DERIVATIVES AS CHARGE TRANSFER MEDIATORS” (NOVO NORDISK A/S, priority 1990, dated 1992).

How the values were obtained:
[1] = target: T1, Glucose oxidase (GOD) (E.C.1.1.3.4.) (Aspergillus niger, UniProt P13006); assay: Cyclic voltammetry of GOD-graphite/paraffin pasta electrode containing the mediator; assay type: biochemical; conditions: Ag/AgCl ref.
Protocol: • 1) A paste containing GOD-immobilized graphite, paraffin and mediator is prepared. If the mediator has a big solubility in paraffin then 10 mg of mediator is used per ml of paraffin. If the mediator has a little solubility in paraffin then 50 mg of crystals are added per ml of paraffin in order to obtain a homogeneous mixture before graphite is added. The paste obtained is filled into sticks. • 2) The activity of the paste is determined in a cyclic voltametri equipment where the current is measured as a function of the potential (CV sweep). Five concentrations of glucose are measured, i.e., 0, 5, 10, 15 and 20 mM. Based upon the results obtained, the following is evaluated: • a) whether the mediator can be oxidized and reduced by the graphite electrode, • b) whether the mediator can be reduced of GOD, • c) the optimal potential for the electorde to be used, • d) whether a lineary response as a function of the concentration of glucose can be obtained using the concentration of mediator in question, • e) whether the concentration of the mediator can be optimized. • 3) The response as a function of time at the optimal potential is to be measured. The time interval within which the response represents a stable response for the concentration of glucose is to be evaluated. • 4) The stability of the mediator in the paste question is determined.
(§1) Glucose oxidase (GOD) (E.C.1.1.3.4.) was immobilized on graphite particles by the following procedure: 10 g of graphite was oxidized in air at 100°C for 24 hours. The surface oxidized graphite particles were activated with 500 mg of 1-cyclohexyl-3-(2-morpholinoethyl)carbodiimide metho-p-toluenesulfonate in 100 ml of 0.1 M acetate buffer (pH 4.76) for 2 hours, then washed with distilled water until an approximately neutral pH value and dried. The activated graphite was mixed with 30 ml of 0.01 phosphate buffer (pH 7.3) containing 80,000 IU GOD and 4% glutaraldehyde for 16 hours at 4°C, dried and sieved through a 48 mesh to obtain uniform particles.
(§2) 1 g of paraffin oil containing 5% Methylene green (4-nitro-3,7-bis(dimethylamino)phenothiazine) was mixed carefully with 2 g of GOD modified graphite to a uniform pasta.
(§3) The pasta was filled into a plastic rod in which it was possible to cut a thin cross-sectional slice to introduce a new well-defined electrode area. Before each measurement, the electrode surface was renewed. The working electrode area used was 3 mm^2.
In the study of the working electrode, an Ag auxiliary electrode and an Ag/AgCl reference electrode was used. In a cyclic voltammogram, a catalytic current from the reoxidation of the mediator was observed beginning at -50 mV and being stable between 50 and 400 mV. The current was proportional to the concentration of glucose used.
(§4) Data in the table are obtained using the same procedure as in Example 1.

[2] = target: T1, Glucose oxidase (GOD) (E.C.1.1.3.4.); assay: Chronoamperometry of GOD-graphite/paraffin pasta electrode containing the mediator (glucose measurement); assay type: biochemical; conditions: for Working potential: Ag/AgCl ref.; for SD% of 100 measurement / Signal to noice ration: at 7mM glucose
Protocol: as §1, §2, §3
Chronoamperometry was preformed at 100 mV using the integrated current from 30 to 60 seconds after applying the potential. A linearity up to 40 mM glucose was obtained. The current was 500 nA/(sec*mM). The signal was not affected by the oxygen concentration in the solution. Reference pasta without Methylene green was not affected by different glucose concentrations.
as §4

[3] = Redox potential of the mediator at GC electrode; assay type: physicochemical; conditions: Ag/AgCl ref.; in mV (unit assumed)
Source text: as §4

[4] = Stability test of pasta rods with selected mediators stored at different temperatures; assay type: physicochemical; parameters: unit not given here
Protocol: The stability of a paste with a certain mediator can be determined using the following method:
The mediator is dissolved or mixed with paraffin and, thereafter, the enzyme coupled to graphite is added. The mixture is homogenized giving a paste. This paste is filled into electrode holders of plast giving so-called sticks. These sticks are tested using 0 and 10 mM glucose standards in order to characterize the activity of these sticks in relation to glucose. Thereafter, the paste containing sticks are stored at a constant temperature, for example, 4, 20, 35 and 54°C. After a certain period of time, for example 1 month, the sticks are tested using the 0 and 10 mM glucose standards and the activities measured are compared with the activity measured at originally.
Data are obtained using the same basis procedure as in Example 1. Rods with selected mediators were stored at different temperature to accelerate processes which could give new analytical performance.

[5] = target: T2, Lactate oxidase (Aerococcus viridans, UniProt Q44467); assay: Lactate assay with enzyme-graphite pasta electrode and mediator; assay type: biochemical; conditions: lactate system; at 100 mV vs. Ag/AgCl reference electrode
T2 construct: purchased Sigma
T2 sequence (Q44467 1-374): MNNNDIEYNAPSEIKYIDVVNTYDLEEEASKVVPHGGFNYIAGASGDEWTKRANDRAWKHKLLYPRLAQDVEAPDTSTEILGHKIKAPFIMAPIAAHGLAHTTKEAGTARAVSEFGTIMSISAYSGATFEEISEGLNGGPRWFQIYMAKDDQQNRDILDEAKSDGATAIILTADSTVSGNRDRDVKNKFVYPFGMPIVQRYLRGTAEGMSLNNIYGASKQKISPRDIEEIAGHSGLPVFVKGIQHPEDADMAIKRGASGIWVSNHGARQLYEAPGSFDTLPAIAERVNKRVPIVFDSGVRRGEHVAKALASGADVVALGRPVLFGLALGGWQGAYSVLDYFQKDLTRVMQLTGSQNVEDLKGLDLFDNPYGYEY
Protocol: Lactate oxidase and alcohol oxidase were obtained from Sigma and the enzymes were used as in Example 1. The same mediators as in Example 4 were tested in the electrodes. The best response for the lactate system was obtained with Methylene green, which gave a current density at 4 µA/cm^2/mM at 100 mV vs. Ag/AgCl reference electrode. For the alcohol system ethanol was used as enzyme substrate. The current density was much lower than for the lactate system and none of the tested mediators worked optimally. Other mediators sucessfully tested with glucose oxidase are expected to give higher current densitites due to differences in hydrophobicity and hydrophillicity.

T1 sequence (P13006 17-605, species assumed): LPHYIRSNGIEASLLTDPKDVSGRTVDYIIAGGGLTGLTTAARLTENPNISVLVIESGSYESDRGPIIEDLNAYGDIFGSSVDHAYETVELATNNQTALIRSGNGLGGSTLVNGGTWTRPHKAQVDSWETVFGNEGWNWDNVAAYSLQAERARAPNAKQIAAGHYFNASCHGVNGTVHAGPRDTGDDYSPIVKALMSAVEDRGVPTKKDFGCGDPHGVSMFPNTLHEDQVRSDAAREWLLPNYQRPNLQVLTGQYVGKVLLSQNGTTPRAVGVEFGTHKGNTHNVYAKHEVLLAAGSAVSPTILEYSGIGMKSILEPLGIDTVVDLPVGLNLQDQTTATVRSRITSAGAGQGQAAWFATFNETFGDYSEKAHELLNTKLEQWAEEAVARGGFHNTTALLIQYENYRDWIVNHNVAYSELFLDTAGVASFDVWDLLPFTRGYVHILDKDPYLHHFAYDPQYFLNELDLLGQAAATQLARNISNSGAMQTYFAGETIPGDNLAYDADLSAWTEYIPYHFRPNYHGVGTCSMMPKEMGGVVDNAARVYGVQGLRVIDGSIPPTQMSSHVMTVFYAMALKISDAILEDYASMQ

| SMILES | Catalytic interval beginning at [1] [mV] | Working potential [2] | SD% of 100 measurement [2] [%] | Signal to noice ration [2] | Linearity ([2]; glucose) [mM] | Redoxpotential at GCElectrode [3] | activity of rod in stability test ([4]; 4°C, listed as a, Time 0) | activity of rod in stability test ([4]; 4°C, listed as b, Time 0) | activity of rod in stability test ([4]; 20°C, listed as a, Time 0) | activity of rod in stability test ([4]; 20°C, listed as b, Time 0) | activity of rod in stability test ([4]; 35°C, listed as a, Time 0) | activity of rod in stability test ([4]; 35°C, listed as b, Time 0) | activity of rod in stability test ([4]; 54°C, listed as a, Time 0) | activity of rod in stability test ([4]; 54°C, listed as b, Time 0) | further results |
| --- | --- | --- | --- | --- | --- | --- | --- | --- | --- | --- | --- | --- | --- | --- | --- |
| CN(C)c1ccc(N2CCOCC2)cc1 [MDMP, 1-dimethylamino-4-morpholinobenzene] | -20 | 100 | 4.5 | 8.3 | 20 | 124 | 17.2 | 16.2 | 16.4 | 16.0 | 15.4 | 13.4 | 17.4 | 14.4 | activity of rod in stability test ([4]; 4°C, listed as a, Time 72): 16.9; activity of rod in stability test ([4]; 4°C, listed as b, Time 72): 18.1; activity of rod in stability test ([4]; 20°C, listed as a, Time 72): 17.4; activity of rod in stability test ([4]; 20°C, listed as b, Time 72): 15.4; activity of rod in stability test ([4]; 35°C, listed as a, Time 72): 15.7; activity of rod in stability test ([4]; 35°C, listed as b, Time 72): 14.5; activity of rod in stability test ([4]; 54°C, listed as a, Time 72): 6.9; activity of rod in stability test ([4]; 54°C, listed as b, Time 72): 8.5 |
| CN(C)c1ccc2c(c1)Sc1c(ccc(N(C)C)c1[N+](=O)[O-])N2 [MG, 4-nitro-3,7-bis(dimethylamino)phenothiazine] | -50 | 100 | 7.5 | 22.5 | 40 | -149 | 13.7 | 10.0 | 14.9 | 12.5 | 12.1 | 13.3 | 15.8 | 12.8 | signal affected by the oxygen concentration in the solution ([2]; at 100 mV): not affected; current ([2]; at 100 mV, integrated current from 30 to 60 seconds after applying the potential): 500 nA/(sec*mM); Linearity in mM ([2]; glucose, listed as Methylene green): up to 40 mM; activity of rod in stability test ([4]; 4°C, listed as a, Time 75): 13.2; activity of rod in stability test ([4]; 4°C, listed as b, Time 75): 14.3; activity of rod in stability test ([4]; 20°C, listed as a, Time 75): 14.3; activity of rod in stability test ([4]; 20°C, listed as b, Time 75): 15.4; activity of rod in stability test ([4]; 35°C, listed as a, Time 75): 11.2; activity of rod in stability test ([4]; 35°C, listed as b, Time 75): 12.2; activity of rod in stability test ([4]; 54°C, listed as a, Time 75): 10.4; activity of rod in stability test ([4]; 54°C, listed as b, Time 75): 12.6; current density [5]: 4 µA/cm^2/mM |
| c1cc(N2CCOCC2)ccc1N1CCCCC1 [MPP, 1-morpholino-4-piperidinobenzene] | 20 | 100 | 4.0 | 10 | 20 | 166 | 11.7 | 9.2 | 10.0 | 7.2 | 7.0 | 9.0 | 12.5 | 11.3 | activity of rod in stability test ([4]; 4°C, listed as a, Time 70): 8.8; activity of rod in stability test ([4]; 4°C, listed as b, Time 70): 10.5; activity of rod in stability test ([4]; 20°C, listed as a, Time 70): 11.9; activity of rod in stability test ([4]; 20°C, listed as b, Time 70): 9.3; activity of rod in stability test ([4]; 35°C, listed as a, Time 70): 9.0; activity of rod in stability test ([4]; 35°C, listed as b, Time 70): 9.5; activity of rod in stability test ([4]; 54°C, listed as a, Time 70): 4.1; activity of rod in stability test ([4]; 54°C, listed as b, Time 70): 4.7 |
